Activity calls are given as the source filed them. No cut-off for these calls is given here.
Assays:
[1] = Growth inhibition of human HCC2998 cells after 48 hrs by sulforhodamine B assay; type: functional; details: HCC 2998, 48 h
[2] = system: NCI-H460; experiment: Growth inhibition of human NCI-H460 cells after 48 hrs by sulforhodamine B assay; type: functional; details: NCI-H460, 48 h
[3] = system: NCI-H226; experiment: Growth inhibition of human NCI-H226 cells after 48 hrs by sulforhodamine B assay; type: functional; details: NCI-H226, 48 h
[4] = Growth inhibition of human HOP92 cells after 48 hrs by sulforhodamine B assay; type: functional; details: HOP-92, 48 h
[5] = system: HOP-62; experiment: Growth inhibition of human HOP62 cells after 48 hrs by sulforhodamine B assay; type: functional; details: HOP-62, 48 h
[6] = system: RPMI-8226; experiment: Growth inhibition of human RPMI8226 cells after 48 hrs by sulforhodamine B assay; type: functional; details: RPMI-8226, 48 h
[7] = system: MOLT-4; experiment: Growth inhibition of human MOLT4 cells after 48 hrs by sulforhodamine B assay; type: functional; details: MOLT-4, 48 h
[8] = system: K562; experiment: Growth inhibition of human K562 cells after 48 hrs by sulforhodamine B assay; type: functional; details: K562, 48 h
[9] = system: HL-60(TB); experiment: Growth inhibition of human HL-60(TB) cells after 48 hrs by sulforhodamine B assay; type: functional; details: HL-60, 48 h
[10] = system: CCRF-CEM; experiment: Growth inhibition of human CCRF-CEM cells after 48 hrs by sulforhodamine B assay; type: functional
[11] = target: T1, Retinoblastoma-associated protein (Homo sapiens) (UniProt P06400); experiment: Inhibition of pRb p110 phosphorylation in human MDA-MB-231 cells after 48 hrs by Western blotting; type: cell-based
T1 sequence (whole entry): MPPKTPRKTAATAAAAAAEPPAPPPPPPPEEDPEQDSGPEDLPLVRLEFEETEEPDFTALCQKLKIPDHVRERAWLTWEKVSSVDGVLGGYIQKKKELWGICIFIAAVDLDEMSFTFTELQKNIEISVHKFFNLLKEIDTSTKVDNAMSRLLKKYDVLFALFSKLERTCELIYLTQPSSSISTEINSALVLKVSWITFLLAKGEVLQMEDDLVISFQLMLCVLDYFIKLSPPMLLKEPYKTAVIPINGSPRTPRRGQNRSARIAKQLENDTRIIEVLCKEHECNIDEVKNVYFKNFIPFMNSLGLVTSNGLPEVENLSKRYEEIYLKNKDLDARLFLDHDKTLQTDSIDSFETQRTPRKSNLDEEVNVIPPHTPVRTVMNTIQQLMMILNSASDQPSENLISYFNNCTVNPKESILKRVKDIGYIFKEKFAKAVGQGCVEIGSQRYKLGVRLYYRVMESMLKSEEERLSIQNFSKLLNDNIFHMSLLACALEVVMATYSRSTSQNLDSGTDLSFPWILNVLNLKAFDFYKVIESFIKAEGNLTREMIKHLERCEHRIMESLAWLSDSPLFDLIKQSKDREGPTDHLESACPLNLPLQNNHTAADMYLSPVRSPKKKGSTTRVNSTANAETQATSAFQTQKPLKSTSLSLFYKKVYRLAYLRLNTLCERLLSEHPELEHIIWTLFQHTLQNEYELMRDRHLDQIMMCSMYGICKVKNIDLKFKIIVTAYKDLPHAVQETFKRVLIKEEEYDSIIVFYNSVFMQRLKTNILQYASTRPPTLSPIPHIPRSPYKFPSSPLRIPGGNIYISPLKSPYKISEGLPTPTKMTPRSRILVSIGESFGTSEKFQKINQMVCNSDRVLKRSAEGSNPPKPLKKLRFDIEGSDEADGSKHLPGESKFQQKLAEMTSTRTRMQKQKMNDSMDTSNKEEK

[12] = target: T1, Retinoblastoma-associated protein (Homo sapiens); experiment: Inhibition of pRb p110 phosphorylation in human HCT116 cells at 5 to 10 uM after 48 hrs by Western blotting relative to unphosphorylated p105; type: cell-based; details: HCT-116
[13] = target: T1, Retinoblastoma-associated protein (Homo sapiens); experiment: Inhibition of pRb p110 phosphorylation in human MDA-MB-231 cells at 5 to 10 uM after 48 hrs by Western blotting relative to unphosphorylated p105; type: cell-based
[14] = system: HCT-116; experiment: Cell cycle arrest in human HCT116 cells assessed as accumulation of G2-M phase at 10 uM after 48 hrs using propidium iodide staining by flow cytometric analysis (reference value: 19.2%); type: functional
[15] = system: HCT-116; experiment: Cell cycle arrest in human HCT116 cells assessed as accumulation of sub-G0-G1 phase at 10 uM after 48 hrs using propidium iodide staining by flow cytometric analysis (reference value: 15.2%); type: functional
[16] = system: MDA-MB-231; experiment: Cell cycle arrest in human MDA-MB-231 cells assessed as accumulation of G2-M phase at 10 uM after 48 hrs using propidium iodide staining by flow cytometric analysis (reference value: 27.5%); type: functional
[17] = system: MDA-MB-231; experiment: Cell cycle arrest in human MDA-MB-231 cells assessed as accumulation of G2-M phase at 5 uM after 48 hrs using propidium iodide staining by flow cytometric analysis (reference value: 27.5%); type: functional
[18] = Therapeutic index, ratio of IC50 for human HeDe cells to IC50 for human HCT116 cells; type: cell-based, HCT-116; details: HeDe cells versus HCT116 cells, read-out: TI
[19] = Therapeutic index, ratio of IC50 for human HeDe cells to IC50 for human MDA-MB-231 cells; type: cell-based; details: HeDe cells versus MDA-MB-231 cells, read-out: TI
[20] = Cytotoxicity against human HuDe cells after 48 hrs by sulforhodamine B assay; type: cell-based
[21] = system: DU-145; experiment: Growth inhibition of human DU145 cells after 48 hrs by sulforhodamine B assay; type: functional; details: DU-145, 48 h
[22] = Growth inhibition of human UO31 cells after 48 hrs by sulforhodamine B assay; type: functional; details: UO-31, 48 h
[23] = system: SN12C; experiment: Growth inhibition of human SN12C cells after 48 hrs by sulforhodamine B assay; type: functional
[24] = Growth inhibition of human RXF393 cells after 48 hrs by sulforhodamine B assay; type: functional; details: RXF 393, 48 h
[25] = system: ACHN; experiment: Growth inhibition of human ACHN cells after 48 hrs by sulforhodamine B assay; type: functional
[26] = system: A498; experiment: Growth inhibition of human A498 cells after 48 hrs by sulforhodamine B assay; type: functional; details: A498, 48 h
[27] = system: OVCAR-3; experiment: Growth inhibition of human OVCAR3 cells after 48 hrs by sulforhodamine B assay; type: functional; details: OVCAR-3, 48 h
[28] = system: UACC-62; experiment: Growth inhibition of human UACC62 cells after 48 hrs by sulforhodamine B assay; type: functional; details: UACC-62, 48 h
[29] = system: Malme-3M; experiment: Growth inhibition of human MALME-3M cells after 48 hrs by sulforhodamine B assay; type: functional
[30] = system: LOX IMVI; experiment: Growth inhibition of human LOXIMVI cells after 48 hrs by sulforhodamine B assay; type: functional
[31] = Growth inhibition of human SF539 cells after 48 hrs by sulforhodamine B assay; type: functional; details: SF-539, 48 h
[32] = system: SNB-19; experiment: Growth inhibition of human SNB19 cells after 48 hrs by sulforhodamine B assay; type: functional; details: SNB-19, 48 h
[33] = system: SW-620; experiment: Growth inhibition of human SW620 cells after 48 hrs by sulforhodamine B assay; type: functional; details: SW-620, 48 h

## C=C1c2c(C)nn(-c3ccc(OC)cc3)c2N(C)C23CC1C1(C)c4c(C)nn(-c5ccc(OC)cc5)c4N(C)C(C)(CC12)C3 (stereo not drawn)
[1]
  GI50: 4.07 µM
[2]
  GI50: 2.49 µM
[3]
  GI50: 4.44 µM
[4]
  GI50: 1.18 µM
[5]
  GI50: 4.28 µM
[6]
  GI50: 1.87 µM
[7]
  GI50: 2.6 µM
[8]
  GI50: 3.6 µM
[9]
  GI50: 2.54 µM
[10]
  GI50: 3.41 µM
[11]
  inhibition: Dose-dependent effect
[12]
  inhibition: Active
[13]
  inhibition: Active
[14]
  Activity: 10.3%
[15]
  Activity: 13.5%
[16]
  Activity: 17.8%
[17]
  Activity: 18.6%
[18]
  selectivity ratio: 26.9
[19]
  selectivity ratio: 24.4
[20]
  IC50: 76 µM
[21]
  GI50: 4.38 µM
[22]
  GI50: 2.61 µM
[23]
  GI50: 3.65 µM
[24]
  GI50: 1.9 µM
[25]
  GI50: 3.3 µM
[26]
  GI50: 2.47 µM
[27]
  GI50: 3.27 µM
[28]
  GI50: 2.86 µM
[29]
  GI50: 3.24 µM
[30]
  GI50: 2.24 µM
[31]
  GI50: 3.16 µM
[32]
  GI50: 4.34 µM
[33]
  GI50: 3.63 µM
